Measurements reported in patent US7884099B2 (priority 2007, dated 2011).
In brackets after ≈: the same amount, converted by molar mass. Where two headings read alike, the source gives them in different places.

Assays:
[1] = test system: S. aureus rpoB^H481Y; experiment: MIC by microbroth dilution, rifamycin-resistant S. aureus rpoB H481Y; format: cell-based, Staphylococcus aureus; conditions: for MIC: Staphylococcus aureus, read-out: MIC S. aureus rpoB^H481Y
Protocol: (§1) Representative compounds are assayed for antimicrobial activity as follows: Minimum Inhibitory Concentrations (MICs) against Staphylococcus aureus ATCC 29213, its isogenic derivative, and Escherichia coli ATCC 25922 were determined by the microbroth dilution method, as per NCCLS guidelines (National Committee for Clinical Laboratory Standards 2000).

[2] = test system: S. aureus gyrA^S84L parC^S80F; experiment: MIC by microbroth dilution, quinolone-resistant S. aureus gyrA S84L parC S80F; format: cell-based, Staphylococcus aureus; conditions: for MIC: Staphylococcus aureus, read-out: MIC S. aureus gyrA^S84L parC^S80F
Protocol: as §1

[3] = test system: Escherichia coli ATCC 25922; experiment: MIC by microbroth dilution, E. coli ATCC 25922; format: cell-based
Protocol: as §1

[4] = test system: Staphylococcus aureus ATCC 29213; experiment: MIC by microbroth dilution, S. aureus ATCC 29213; format: cell-based
Protocol: as §1

[5] = test system: S. aureus rpoB^H481Y gyrA^S84L parC^S80F; experiment: MIC by microbroth dilution, triple mutant S. aureus; format: cell-based; conditions: Staphylococcus aureus, read-out: MIC S. aureus rpoB^H481Y gyrA^S84L parC^S80F
Protocol: as §1

[6] = test system: Wild-type and Genetically-Defined Resistant Strains of Bacteria; experiment: Antibacterial activity against wild-type and genetically-defined resistant strains (overall statement on Table 1); format: cell-based; conditions: summary of Table 1
Protocol: as §1

[7] = ATCC25922, read-out: MIC E. coli ATCC# 25922
[8] = ATCC29213, read-out: MIC S. aureus ATCC# 29213
[9] = ATCC25922, microbroth dilution, NCCLS, read-out: MIC E. coli ATCC# 25922
[10] = ATCC29213, wild-type, microbroth dilution, NCCLS, read-out: MIC S. aureus ATCC# 29213

SMILES	MIC [1] [µg/mL]	MIC [2] [µg/mL]	MIC [3, 7] [µg/mL]	MIC [4, 8] [µg/mL]	MIC [5] [µg/mL]	antibacterial activity (in words) [6]	activity against quinolone-resistant S. aureus gyrA^S84L parC^S80F (in words) ([2]; mutations in gyrase and topoisomerase IV)	MIC [3, 9] [µg/mL]	MIC [4, 10] [µg/mL]	activity against rifamycin-resistant S. aureus rpoB^H481Y (in words) ([1]; mutation in RNA polymerase)
CO[C@H]1/C=C/O[C@@]2(C)Oc3c(C)c(O)c4c(=O)c(c5oc6cc(N7CCC(N(C)C8([C@@H]9CCN(c%10c(F)cn%11c(=O)c(C(=O)O)cc(C%12CC%12)c%11c%10C)C9)CC8)CC7)cc(O)c6nc-5c4c3C2=O)NC(=O)/C(C)=C\C=C\[C@H](C)[C@H](O)[C@@H](C)[C@@H](O)[C@@H](C)[C@H](OC(C)=O)[C@@H]1C [Example 1]	0.12 (≈ 0.0936 µM)	< 0.004	0.5 (≈ 0.39 µM)	< 0.004	2 (≈ 1.56 µM)	–	–	–	–	–
COc1c(N2CC[C@@H](C3(N(C)C4CCN(c5cc(O)c6nc7c8c9c%10c(C)c(O)c8c(=O)c(c-7oc6c5)NC(=O)/C(C)=C\C=C\[C@H](C)[C@H](O)[C@@H](C)[C@@H](O)[C@@H](C)[C@H](OC(C)=O)[C@H](C)[C@@H](OC)/C=C/O[C@@](C)(O%10)C9=O)CC4)CC3)C2)c(F)cc2c(=O)c(C(=O)O)cn(C3CC3)c12 [Example 2, (R)-5′-[4-[1-[1-(3-Carboxy-1-cyclopropyl-6-fluoro-8-methoxy-4-oxo-1,4-dihydro-quinoline-7-yl)-pyrrolidin-3-yl-cyclopropyl-methyl]-amino]-piperidin-1-yl]-3′-hydroxy-benzoxazinorifamycin]	0.5 (≈ 0.385 µM)	0.016 (≈ 0.0123 µM)	4 (≈ 3.08 µM)	0.008 (≈ 0.00617 µM)	4 (≈ 3.08 µM)	potent antibacterial activity	–	–	–	–
COc1c(N2CCN(c3cc(O)c4nc5c6c7c8c(C)c(O)c6c(=O)c(c-5oc4c3)NC(=O)/C(C)=C\C=C\[C@H](C)[C@H](O)[C@@H](C)[C@@H](O)[C@@H](C)[C@H](OC(C)=O)[C@H](C)[C@@H](OC)/C=C/O[C@@](C)(O8)C7=O)CC2)c(F)cc2c(=O)c(C(=O)O)cn(C3CC3)c12 [Example 3, 5′-[4-(3-Carboxy-1-cyclopropyl-6-fluoro-8-methoxy-4-oxo-1,4-dihydroquinolin-7-yl)-piperazin-1-yl]-3′-hydroxy-benzoxazinorifamycin]	0.24 (≈ 0.207 µM)	0.008 (≈ 0.0069 µM)	4 (≈ 3.45 µM)	0.008 (≈ 0.0069 µM)	8 (≈ 6.9 µM)	potent antibacterial activity	–	–	–	–
O=C(O)c1cn(C2CC2)c2cc(N3CCNCC3)c(F)cc2c1=O [ciprofloxacin, reference compound]	0.24 (≈ 0.724 µM)	> 32	–	–	> 32	–	not as effective	0.008 (≈ 0.0241 µM)	0.24 (≈ 0.724 µM)	–
CO[C@H]1/C=C/O[C@@]2(C)Oc3c(C)c(O)c4c(O)c(c(/C=N/N5CCN(C)CC5)c(O)c4c3C2=O)NC(=O)/C(C)=C\C=C\[C@H](C)[C@H](O)[C@@H](C)[C@@H](O)[C@@H](C)[C@H](OC(C)=O)[C@@H]1C [rifampin, reference compound]	> 64	0.008 (≈ 0.00972 µM)	–	–	> 64	–	–	8 (≈ 9.72 µM)	0.008 (≈ 0.00972 µM)	not as effective
